Source: patent USRE49816E1, “Dipeptides as inhibitors of human immunoproteasomes” (CORNELL UNIVERSITY, priority 2014, dated 2024)

Columns and labels:
Karpas 1106p cells [1] = assay: Cytotoxicity (LD50) against Karpas lymphoma cells; type: cell-based, human; settings: Table 3
Description: Table 3 lists the inhibition kinetic parameters, selectivity index, and calculated log Ps of selected dipeptides.

hu c-20S β5c-subunit = hu c-20S β5c-subunit (Homo sapiens, UniProt P20618+P28074); assay: N,C-capped dipeptides IC50, succ-LLVY-AMC fluorescence assay; type: biochemical
Description: (§1) All inhibitory assays for N,C capped dipeptides were performed in a black solid-bottom 96-well plate. In general, compound plates were prepared starting from 10 mM in 3× series dilution to 15 μM. 1 μl of DMSO stock was transferred to a black 96-well plate and 100 μL of reaction mixture were added 15 μM N-acetyl-Alanine-Asparagine-Tryptophan-7-amino-4-methylcourmarin (Ac-ANW-AMC) or 25 μM succinyl-Leucine-Leucine-Valine-Tyrosine-7-amino-4-methyl-courmarin (succ-LLVY-AMC), 0.4 nM hu i-20S β5i-subunit or 0.2 nM hu c-20S β5c-subunit, 0.02% SDS, 1% BSA, 0.5 mM EDTA in 20 mM HEPES buffer at pH7.5. The plates were then spun at 1000 rpm for 1 minute, and the fluorescence units of each well were recorded at λex=360 nm, λem=460 nm for 2 hours. The slopes of the initial linear range of the time course were used to calculate the velocity, and relative activities were normalized to the velocities of the DMSO control.

hu i-20S β5i-subunit = hu i-20S β5i-subunit (Homo sapiens, UniProt P20618+P28062); assay: N,C-capped dipeptides IC50, Ac-ANW-AMC fluorescence assay; type: biochemical; settings: for SI (selectivity index): Hu c-20S over Hu i-20S
Description: as §1

[2] = system: proteasome inside the Karpas 1106p cells; assay: Cell-based Proteasome-Glo assay after compound removal; set-up: species or system human; settings: 4 hours, read-out: Proteasome-glo β5-IC50
Karpas 1106p cells [3] = assay: Cytotoxicity (LD50) against Karpas lymphoma cells; type: cell-based, human; settings: Table 4

Row | Compound | LD50 (Karpas 1106p cells [1]) | IC50 (hu c-20S β5c-subunit) | IC50 (hu i-20S β5i-subunit) | SI (selectivity index) (hu i-20S β5i-subunit) | IC50 [2] | LD50 Karpas (Karpas 1106p cells [3])
1 | C[C@H](NC(=O)[C@H](CC(=O)NOC(C)(C)C)NC(=O)Cc1ccccc1)C(=O)NCc1cccc2ccccc12 [DPLG-2142, (S)—N4-(tert-butoxy)-N1-((S)-1-((naphthalen-1-ylmethyl)amino)-1-oxopropan-2-yl)-2-(2-phenylacetamido)succinamide] | 9.1 µM | – | – | – | – | –
2 | Cc1ccc(S(=O)(=O)N[C@@H](CCC(=O)NC(C)(C)C)C(=O)N[C@@H](C)C(=O)NOc2ccccc2)cc1 [DPLG-3017] | 6.33 µM | 600 nM | 99 nM | 6 | – | –
3 | COC[C@H](NC(=O)[C@H](CC(=O)NOC(C)(C)C)NC(=O)CCCc1ccccc1)C(=O)NCc1cccc2ccccc12 [DPLG-2223, (S) N^4-(tert-butoxy)-N^1—((S)-3methoxy-1-((naphthalen-1-ylmethyl)amino)-1-oxopropan-2-yl)-2-(4-phenylbutanamido)succinamide] | 4.47 µM | 767 nM | 6.5 nM | 118 | – | –
4 | C[C@H](NC(=O)[C@H](CC(=O)NOC(C)(C)C)NC(=O)CCc1ccccc1)C(=O)NCc1cccc2ccccc12 [DPLG-2058] | 34.4 µM | – | – | – | 9 nM | 34.4 µM
5 | COC[C@H](NC(=O)[C@H](CC(=O)NC(C)(C)C)NC(=O)CCc1ccccc1)C(=O)NCc1cccc2ccccc12 [DPLG-2230, (S)—N^4-(tert-butyl)-N^1—((S)-3-methoxy-1-((naphthalen-1-ylmethyl)amino)-1-oxopropan-2-yl)-2-(3-phenylpropanamido)succinamide] | 1.11 µM | – | – | – | – | –
6 | CC(C)(C)NC(=O)C[C@H](NC(=O)CCc1ccccc1)C(=O)N[C@@H](Cc1ccc(F)cc1)C(=O)NCc1cccc2ccccc12 [DPLG-3066] | 0.198 µM | > 100000 nM | 5.3 nM | >19000 | – | –
7 | COC[C@H](NC(=O)[C@H](CC(=O)NOC(C)(C)C)NC(=O)c1cc(C)on1)C(=O)NCc1cccc2ccccc12 [DPLG-2144, (S)—N^4-(tert-butoxy)-N^1—((S)-3-methoxy-1-((napthalen-1-ylmethyl)amino)-1-oxopropan-2-yl)-2-(5-methylisoxazole-3-carboxamido)succinamide] | 1.47 µM | 620 nM | 9 nM | 69 | – | –
8 | COC[C@H](NC(=O)CCc1ccccc1)C(=O)N[C@@H](Cc1ccc(F)cc1)C(=O)NCc1cccc2ccccc12 [DPLG-2054, (S)-3-(4-fluorophenyl)-2-((S)-3-methoxy-2-(3-phenylpropanamido)propanamido)-N-(naphthalen-1-ylmethyl)propanamide] | >100 µM | 75800 nM | > 100000 nM | <0.8 | – | –
9 | C[C@H](NC(=O)[C@H](CC(=O)NC(C)(C)C)NC(=O)C(=O)c1c[nH]c2ccccc12)C(=O)NCc1cccc2ccccc12 [DPLG-3053] | 0.22 µM | – | – | – | – | –
10 | COC[C@H](NC(=O)[C@H](CC(=O)NOC(C)(C)C)NC(=O)CCc1ccccc1)C(=O)NCc1cccc(OC)c1OC [DPLG-2211] | 4.18 µM | 1280 nM | 245 nM | 5 | – | –
11 | C[C@H](NC(=O)[C@H](CC(=O)NOC(C)(C)C)NC(=O)c1cnccn1)C(=O)NCc1cccc2ccccc12 [DPLG-2098] | >100 µM | – | – | – | – | –
12 | CC(C)[C@H](NC(=O)[C@H](CC(=O)NOC(C)(C)C)NC(=O)CCc1ccccc1)C(=O)NCc1cccc2ccccc12 [DPLG-2224, (S)—N^4-(tert-butoxy)-N^1—((S)-3-methyl-1-((naphthalen-1-ylmethyl)amino)-1-oxobutan-2-yl)-2-(3-phenylpropanamido)succinamide] | >100 µM | 228 nM | 4.3 nM | 53 | – | –
13 | COC[C@H](NC(=O)[C@H](CC(=O)NC1COC1)NS(=O)(=O)c1ccc(C)cc1)C(=O)NCc1cccc2ccccc12 [DPLG-2229] | >100 µM | 19300 nM | 69 nM | 236 | – | –
14 | CC(=O)N[C@@H](Cc1ccc(F)cc1)C(=O)NCc1cccc2ccccc12 [DPLG-2109] | >100 µM | > 100000 nM | 57100 nM | >2 | – | –
15 | C[C@H](NC(=O)[C@H](CC(=O)NOC(C)(C)C)NC(=O)CCc1ccccc1)C(=O)NCc1ccnc2ccccc12 [DPLG-2068, (S)—N^4-(tert-butoxy)-N^1—((S)-1-oxo-1-((quinolin-4-ylmethyl)amino)propan-2-yl)-2-(3-phenylpropanami-do)succinamide] | >100 µM | 28400 nM | 3060 nM | 9.3 | – | –
16 | C[C@H](NC(=O)[C@H](CCC(=O)NC(C)(C)C)NC(=O)CCc1ccccc1)C(=O)NCCc1cccc2ccccc12 [DPLG-3012] | 4.16 µM | 9650 nM | 930 nM | 10.4 | – | –

Row | Compound | LD50 (Karpas 1106p cells [1]) | IC50 (hu c-20S β5c-subunit) | IC50 (hu i-20S β5i-subunit) | SI (selectivity index) (hu i-20S β5i-subunit) | IC50 [2] | LD50 Karpas (Karpas 1106p cells [3])
17 | COC[C@H](NC(=O)[C@H](CC(=O)NC1COC1)NS(C)(=O)=O)C(=O)NCc1cccc2ccccc12 [DPLG-2219, (S)—N^1—((S)-3-methoxy-1-((naphthalen-1-ylmethyl)amino)-1-oxopropan-2-yl)-2-(methylsulfonamido)-N^4-(oxetan-3-yl)succinamide] | >100 µM | > 100000 nM | 4730 nM | >21 | – | –
18 | C[C@H](NC(=O)[C@H](CCC(=O)NC(C)(C)C)NC(=O)CCc1ccccc1)C(=O)NOc1ccccc1 [DPLG-3013] | 11.03 µM | 660 nM | 230 nM | 2.9 | – | –
19 | Cc1ccc(S(=O)(=O)N[C@@H](CCC(=O)NC(C)(C)C)C(=O)N[C@@H](C)C(=O)NCc2cccc(C(F)(F)F)c2)cc1 [DPLG-3014] | 0.96 µM | 420 nM | 25 nM | 17 | – | –
20 | COC[C@H](NC(=O)CCc1ccccc1)C(=O)N[C@@H](C)C(=O)NCc1cccc2ccccc12 [DPLG-2048, (S)-3-methoxy-N—((S)-1-((naphthalen-1-ylmethyl)amino)-1-oxopropan-2-yl)-2-(3-phenylpropanamido)propanamide] | >100 µM | 59800 nM | 34900 nM | 1.7 | – | –
21 | CC(C)(C)NC(=O)C[C@H](NC(=O)CCc1ccccc1)C(=O)N[C@@H](Cc1ccc(F)cc1)C(=O)NCc1cccc(-c2ccccc2)c1 [DPLG-21050] | – | > 100000 nM | 26 nM | >3846 | – | –
22 | COC[C@H](NC(=O)[C@H](CC(=O)NOC(C)(C)C)NC(=O)CCc1ccccc1)C(=O)NCc1cccc2c1NCCC2 [DPLG-2226, (S)—N^4-(tert-butoxy)-N^−1—((S)-3-methoxy-1-oxo-1-(((1,2,3,4-tetrahydroquinolin-8-yl)methyl)amino)propan-2-yl)-2-(3-phenylpropanamido)succinamide] | >100 µM | 78100 nM | 1150 nM | 68 | – | –
23 | CC(C)(C)NC(=O)CC[C@H](NC(=O)CCc1ccccc1)C(=O)N[C@@H](Cc1ccc(F)cc1)C(=O)NCc1cccc2ccccc12 [DPLG-3083] | 1.20 µM | 300 nM | 3.3 nM | 90 | – | –
24 | CC(C)(C)NC(=O)C[C@H](NC(=O)CCc1ccccc1)C(=O)N[C@@H](Cc1ccc(F)cc1)C(=O)NCc1ccc(-c2ccccc2)cc1 [DPLG-21049] | – | 700 nM | 133 nM | 5 | – | –
25 | COC[C@H](NC(=O)[C@H](CC(=O)NOC(C)(C)C)NC(=O)CN1CCOCC1)C(=O)NCc1cccc2ccccc12 [DPLG-2143, (S)—N^4-(tert-butoxy)-N^1—((S)-3-methoxy-1-((naphthalen-1-ylmethyl)amino)-1-oxopropan-2-yl)-2-(2-morpholinoacetamido)succinamide] | >100 µM | 19600 nM | 250 nM | 78 | – | –
26 | COC[C@H](NC(=O)[C@H](CC(=O)NOC(C)(C)C)NC(=O)Cc1ccccc1)C(=O)NCc1cccc2ccccc12 [DPLG-2222, (S)—N^4-(tert-butoxy)-N^1—((S)-3-methoxy-1-((naphthalen-1-ylmethyl)amino)-1-oxopropan-2-yl)-2-(2-phenylacetamido)succinamide] | >100 µM | 738 nM | 11 nM | 70 | – | –
27 | COC[C@H](NC(=O)[C@H](CC(=O)NOC(C)(C)C)NC(=O)CCc1ccccc1)C(=O)NCc1cccc2cccnc12 [DPLG-2220] | 6.27 µM | 1350 nM | 70 nM | 19 | – | –
28 | CC(C)(C)NC(=O)C[C@H](NC(=O)CCc1ccccc1)C(=O)N[C@@H](Cc1ccncc1)C(=O)NCc1cccc2ccccc12 [DPLG-21033] | – | 438 nM | 5.3 nM | 83 | – | –
29 | C[C@H](NC(=O)[C@H](CC(=O)NOC(C)(C)C)NC(=O)CCc1ccccc1)C(=O)NCc1cccc2ncccc12 [DPLG-2073, (S)—N^4-(tert-butoxpropan-2-yl)-2-(3-phenylpropanami-do)succinamide] | >100 µM | 13300 nM | 1370 nM | 10 | – | –
30 | CC(C)(C)NC(=O)C[C@H](NC(=O)C(=O)c1c[nH]c2ccccc12)C(=O)N[C@@H](Cc1ccc(F)cc1)C(=O)NCc1cccc2ccccc12 [DPLG-3084] | 0.084 µM | 37 nM | 1.4 nM | 26 | – | –
31 | COC[C@H](NC(=O)[C@H](CC(=O)NC(C)(C)C)NC(=O)c1cc(C)on1)C(=O)NCc1cccc2ccccc12 [DPLG-2244, (S)—N^4-(tert-butyl)-N^1((S)-3-methoxy-1-((naphthalen-1-ylmethyl)amino)-1-oxopropan-2-yl)-2-(5-methylisoxazole-3-carboxamido)succinamide] | 2.20 µM | – | – | – | – | –
